Converted amounts (≈) assume the structure as drawn.
Legend:
[1] = system: S. aureus M133; assay: MIC, agar plate dilution method; format: cell-based; conditions: Staphylococcus aureus, 37° C., 20 hours, read-out: Antimicrobial activity (MIC)
Protocol: (§1) Antimicrobial activities of the compounds of the present invention were determined by measuring minimum inhibitory concentration (MIC). Minimum inhibitory concentration was determined by the agar plate dilution method in the following manner.
(§2) Test strains were subjected to seed culture using Sensitivity test broth (STB, Nissui Pharmaceutical) except that the strains belonging to the genus Streptococcus, Branhamella and Haemophilus were cultured on blood agar plate. A 5 μl portion of cell suspension of the test strains having about 10^6 CFU/ml was inoculated into Sensitivity disk agar (SDA, Nissui Pharmaceutical) supplemented with 5% horse blood and incubated at 37° C. for 20 hours. Then, MIC was measured. For comparison, MDM and leucomycin A7 (LM-A7) was also tested.

[2] = system: S. aureus 209P JC-1; assay: MIC, agar plate dilution method; format: cell-based; conditions: Staphylococcus aureus; S. aureus 209P JC-1; 37° C., 20 hours; read-out: Antimicrobial activity (MIC)
Protocol: as §1, §2

[3] = system: B. catarrhalis W-0500; assay: MIC, agar plate dilution method; format: cell-based; conditions: Moraxella catarrhalis, W0500, 37° C., 20 hours, read-out: Antimicrobial activity (MIC)
Protocol: as §1, §2

[4] = system: M. pneumoniae Numata; assay: MIC, agar plate dilution method; format: cell-based; conditions: Mycoplasmoides pneumoniae, 20 h, read-out: Antimicrobial activity (MIC)
Protocol: as §1, §2

[5] = system: E. faecalis W-73; assay: MIC, agar plate dilution method; format: cell-based; conditions: Enterococcus faecalis, W73, 20 h, read-out: Antimicrobial activity (MIC)
Protocol: as §1, §2

[6] = system: M. luteus ATCC9341; assay: MIC, agar plate dilution method; format: cell-based; conditions: Micrococcus luteus; M. luteus ATCC9341; 37° C., 20 hours; read-out: Antimicrobial activity (MIC)
Protocol: as §1, §2

[7] = system: S. pneumoniae IP692; assay: MIC, agar plate dilution method; format: cell-based; conditions: Streptococcus pneumoniae; S. pneumoniae IP692; 37° C., 20 hours; read-out: Antimicrobial activity (MIC)
Protocol: as §1, §2

[8] = system: S. aureus M126; assay: MIC, agar plate dilution method; format: cell-based; conditions: Staphylococcus aureus; S. aureus M126; 37° C., 20 hours; read-out: Antimicrobial activity (MIC)
Protocol: as §1, §2

[9] = system: M. pneumoniae FH; assay: MIC, agar plate dilution method; format: cell-based; conditions: Mycoplasmoides pneumoniae, 20 h, read-out: Antimicrobial activity (MIC)
Protocol: as §1, §2

[10] = system: K. pneumoniae PC1602; assay: MIC, agar plate dilution method; format: cell-based; conditions: Klebsiella pneumoniae, 37° C., 20 hours, read-out: Antimicrobial activity (MIC)
Protocol: as §1, §2

[11] = system: M. pneumoniae Mac; assay: MIC, agar plate dilution method; format: cell-based; conditions: Mycoplasmoides pneumoniae, 20 h, read-out: Antimicrobial activity (MIC)
Protocol: as §1, §2

[12] = system: E. coli NIHJ JC-2; assay: MIC, agar plate dilution method; format: cell-based; conditions: Escherichia coli, NIHJJC2, 20 h, read-out: Antimicrobial activity (MIC)
Protocol: as §1, §2

[13] = system: S. epidermidis ATCC14990; assay: MIC, agar plate dilution method; format: cell-based; conditions: Staphylococcus epidermidis, 37° C., 20 hours, read-out: Antimicrobial activity (MIC)
Protocol: as §1, §2

[14] = system: S. aureus MS15026; assay: MIC, agar plate dilution method; format: cell-based; conditions: Staphylococcus aureus, 37° C., 20 hours, read-out: Antimicrobial activity (MIC)
Protocol: as §1, §2

[15] = system: S. aureus MS15027; assay: MIC, agar plate dilution method; format: cell-based; conditions: Staphylococcus aureus, 37° C., 20 hours, read-out: Antimicrobial activity (MIC)
Protocol: as §1, §2

[16] = system: S. Pyogenes Cook; assay: MIC, agar plate dilution method; format: cell-based; conditions: Streptococcus pyogenes, 37° C., 20 hours, read-out: Antimicrobial activity (MIC)
Protocol: as §1, §2

[17] = system: S. Pneumoniae Type 1; assay: MIC, agar plate dilution method; format: cell-based; conditions: Streptococcus pneumoniae, 20 h, read-out: Antimicrobial activity (MIC)
Protocol: as §1, §2

[18] = system: S. aureus MS15009/pMS98; assay: MIC, agar plate dilution method; format: cell-based; conditions: Staphylococcus aureus, MS15009/PMS98, 20 h, read-out: Antimicrobial activity (MIC)
Protocol: as §1, §2

[19] = system: M. pneumoniae FH-P24; assay: MIC, agar plate dilution method; format: cell-based; conditions: Mycoplasmoides pneumoniae, FHP24, 20 h, read-out: Antimicrobial activity (MIC)
Protocol: as §1, §2

[20] = system: H. influenzae 9334; assay: MIC, agar plate dilution method; format: cell-based; conditions: Haemophilus influenzae, 9334, 20 h, read-out: Antimicrobial activity (MIC)
Protocol: as §1, §2

[21] = system: B. catarrhalis W-0506; assay: MIC, agar plate dilution method; format: cell-based; conditions: Moraxella catarrhalis, W0506, 37° C., 20 hours, read-out: Antimicrobial activity (MIC)
Protocol: as §1, §2

[22] = system: S. aureus MS15009/pMS99; assay: MIC, agar plate dilution method; format: cell-based; conditions: Staphylococcus aureus, MS15009/PMS99, 20 h, read-out: Antimicrobial activity (MIC)
Protocol: as §1, §2

[23] = system: Gram-positive bacteria and Mycoplasma; assay: antimicrobial activity in vitro (summary in words); format: cell-based; conditions: from Table 1
Protocol: as §1, §2

[24] = metabolism in plasma; format: in vitro ADME, rat; conditions: no free hydroxyl group in the neutral sugar moiety formed
Protocol: Each test compound and 50 μl of a methanol solution (10,000 γ) were added to 950 μl of thawed rat plasma and the resulting mixture was incubated at 37° C. for 24 hours. After completion of the incubation, a 20 μl portion of the mixture was added to 980 μl of 0.05M phosphate buffer (pH 7.6). A 20 μl portion of the sample solution was used to measure antimicrobial activity against M. luteus. Separately, the calibration curve was prepared by using a methanol solution containing each test compound. The starting activity of each compound in the plasma was referred to as 100%.

[25] = system: M. luteus
Protocol: Each test compound and 50 μl of a methanol solution (10,000 γ) were added to 950 μl of thawed rat plasma and the resulting mixture was incubated at 37° C. for 24 hours. After completion of the incubation, a 20 μl portion of the mixture was added to 980 μl of 0.05M phosphate buffer (pH 7.6). A 20 μl portion of the sample solution was used to measure antimicrobial activity against M. luteus.

CCCCO[C@H]1[C@H](C)O[C@@H](O[C@H]2[C@H](N(C)C)[C@@H](O)[C@H](O[C@H]3[C@@H](CC=O)C[C@@H](C)[C@@H](O)/C=C/C=C/C[C@@H](C)OC(=O)C[C@@H](OC(=O)CC)[C@@H]3OC)O[C@@H]2C)C[C@@]1(C)OC [(2)]
MIC [1]: 0.78 µg/mL (≈ 0.942 µM) | MIC [2]: 0.39 µg/mL (≈ 0.471 µM) | MIC [3]: 1.56 µg/mL (≈ 1.88 µM) | MIC [4]: 0.05 µg/mL (≈ 0.0604 µM) | MIC [5]: 3.13 µg/mL (≈ 3.78 µM) | MIC [6]: 0.05 µg/mL (≈ 0.0604 µM) | MIC [7]: 0.05 µg/mL (≈ 0.0604 µM) | MIC [8]: > 100 µg/mL | MIC [9]: 1.56 µg/mL (≈ 1.88 µM) | MIC [10]: > 100 µg/mL | MIC [11]: 0.1 µg/mL (≈ 0.121 µM) | MIC [12]: > 100 µg/mL | MIC [13]: 1.56 µg/mL (≈ 1.88 µM) | MIC [14]: > 100 µg/mL | MIC [15]: 0.78 µg/mL (≈ 0.942 µM) | MIC [16]: 0.2 µg/mL (≈ 0.242 µM) | MIC [17]: 0.2 µg/mL (≈ 0.242 µM) | MIC [18]: 0.39 µg/mL (≈ 0.471 µM) | MIC [19]: 0.1 µg/mL (≈ 0.121 µM) | MIC [20]: 6.25 µg/mL (≈ 7.55 µM) | MIC [21]: 1.56 µg/mL (≈ 1.88 µM) | MIC [22]: > 100 µg/mL | antimicrobial activities compared with MDM [23]: comparable to, or even exceeding, that of MDM | antimicrobial activities on Gram-positive bacteria and Mycoplasma [23]: strong antimicrobial activities | extent of metabolism [24]: hardly metabolized | degree of loss of the antimicrobial activity in the plasma compared with MOM [25]: lower than that of MOM | duration of antimicrobial activity in rat plasma [25]: extremely long-acting in rat plasma

Source: patent publication US5407918A, “16-membered macrolide derivatives and process for producing the same” (Meiji Seika Kaisha, Ltd., priority 1992, dated 1995)
